From PubChem BioAssay AID179 (DTP/NCI, 2004)
The source made the active and inactive calls.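 The calls were made as follows: active = compounds giving half or more protection of infected cells from virus-caused growth loss, again on retest; inactive = the rest.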

Test system: CEM cells HIV-1 protection, formazan growth assay
Assay: NCI AIDS Antiviral Assay
Settings: for IC50: measured here: growth of uninfected CEM cells
Summary of the method: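 Five concentrations of each compound were applied to infected and uninfected human CEM cells. Protection from HIV-1 was judged from growth measured with a soluble formazan assay.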

SMILES	outcome	EC50	IC50
COC(=O)[C@]1(c2ccc(N(C)C)cc2OC)C[C@@H]2CCCN(CCc3c1[nH]c1ccccc31)C2	inactive		
CCCNC(=O)CNC(=O)c1ccccc1SC(=O)CCCC[n+]1ccccc1		8.32 µM	112 µM
N#C/C(=C/NC(=S)Nc1ccc(S(N)(=O)=O)cc1)C(N)=O		> 200 µM	178 µM
CN(C)/C=N\c1ccnc(=O)[nH]1		> 1320 µM	> 1320 µM
CC(C)=CCC/C(C)=C/CC/C(C)=C/C(O)c1ccccc1 (stereo unspecified)		> 50.1 µM	> 50.1 µM
Cc1ccc2c(c1)C(=O)/C(=N/Nc1ccc(Cl)cc1)CCO2		> 200 µM	110 µM
NC(C(=O)O)/C1=C/CCCCCC1 (stereo unspecified)		> 200 µM	> 200 µM
C=C(Nc1ccc([N+](=O)[O-])cc1[N+](=O)[O-])c1c/c(=N\NC(N)=S)c2ccccc2o1		> 117 µM	> 117 µM
COc1ccc2cc(-c3ccc(OC)c(OC)c3)c(=O)oc2c1		> 200 µM	> 200 µM
O=C(O)[C@H](NS(=O)(=O)c1ccc2ccccc2c1)c1ccccc1	inactive		
CCOC(CC1(O)C(=O)N(Cc2ccccc2)c2ccccc21)OCC (stereo unspecified)		> 200 µM	> 200 µM
Brc1ccc(-c2ccc(-c3ccc(Br)s3)s2)s1		> 200 µM	> 200 µM
CCC(C)(C(=O)O)C(=O)O		> 200 µM	> 200 µM
Cn1c(=O)oc2ccc(S(=O)(=O)Nc3ccc(Cl)cc3[N+](=O)[O-])cc21		> 200 µM	28.2 µM
CO[C@]1(c2ccc([N+](=O)[O-])cc2)Oc2ccccc2C(=O)[C@@]1(Nc1ccc(C=O)cc1)OC		> 200 µM	174 µM
CC(=O)c1cc(C(C)=O)c(CC(=O)C(=O)Nc2cccc(C)c2C)nc1CC(=O)C(=O)Nc1cccc(C)c1C		> 200 µM	> 200 µM
NC(=S=O)C(F)(F)C(F)(F)C(F)(F)F		> 105 µM	89.1 µM
O=c1c2cccnc2ncn1CCN1CCCCC1	inactive		

SMILES	outcome	EC50	IC50
O=S(=O)(OI(OI(OS(=O)(=O)C(F)(F)F)c1ccccc1)c1ccccc1)C(F)(F)F		> 347 µM	6.92 µM
O=C(O)C1=NN(c2ccc(S(=O)(=O)O)cc2)C(=O)C1N=Nc1ccc(S(=O)(=O)O)cc1 (stereo unspecified)	inactive		
CC1(C)OC(=O)C(=Cc2cccc(F)c2)C(=O)O1		> 525 µM	> 525 µM
COC(=O)N/N=C(/c1nc2ccc([N+](=O)[O-])cc2[nH]c1=O)C(O)c1ccc(OC)c(OC)c1 (stereo unspecified)		> 110 µM	> 110 µM
CCOC(=O)c1cccnc1C(OC(C)=O)OC(C)=O		> 891 µM	158 µM
Cc1cccc2c(=O)c3c(O)cc(O)cc3[nH]c12		> 200 µM	14.5 µM
CCCCCCCCCCCC(=O)OC[C@H](C[As](=O)(O)O)OC(=O)CCCCCCCCCCC		> 200 µM	4.17 µM
O=C(Nc1ccc(Cl)cc1)c1cc2cc(N=Nc3ccccc3Cl)ccc2oc1=O		> 16.6 µM	> 16.6 µM
CCCCCCCCCCCC(=O)Oc1c(Cl)cc(Cl)c(OC(=O)C(=O)Oc2c(Cl)cc(Cl)c(OC(=O)CCCCCCCCCCC)c2Cl)c1Cl	inactive		
CCN(CC)CCCNc1c2cc(OC)ccc2nc2cccc([N+](=O)[O-])c12		> 2 µM	0.0407 µM
[N-]=[N+]=C1C(=O)NC(=O)N2C3CC(O)C(COC12)O3 (stereo unspecified)		> 200 µM	> 200 µM
O=C1NC(=O)C(CCN2CCCCC2)(c2ccccc2)C(=O)N1		> 200 µM	> 200 µM
C1CC[N+]2(C1)CC[N+]1(CCCC1)CC2		> 200 µM	> 200 µM
CCCCCCCCCN1CCC(=O)C(C(=O)OC)C1 (stereo unspecified)		> 200 µM	4.68 µM
CC/C=C/C(O[Si](C)(C)C(C)(C)C)C1CC2OC(=O)CCCC2O1 (stereo unspecified)		> 708 µM	> 708 µM
O=C(c1ccccc1)c1ccsc1C(=O)O		> 200 µM	> 200 µM
COc1ccc(Nc2nc(C#N)c(N)s2)cc1		> 490 µM	117 µM
O=C1CC(c2cccc(Br)c2)n2cccc21 (stereo unspecified)	inactive		
